These results are taken from PubChem BioAssay (NCI).

Among the test systems are SF-539 CNS; DMS 273 small cell lung; KM20L2 colon; HCC-2998 colon; UACC-62 melanoma; HOP-92 NSCLC; SNB-78 CNS; A498 renal; SNB-19 CNS; ACHN renal.
Assay in all cases: NCI-60 cell line screen, 48 h

Structures are written as SMILES.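 These data come from cells grown in 96-well plates and exposed to compound for 48 hours at five concentrations. TGI denotes the concentration required for complete inhibition of growth.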 A value given as a limit tells only on which side of the number the result lay.

Turning to `COc1cc2c(cc1OC)-c1c3c(cc4c1[C@@H](C2)N(C)CC4)OCO3`, the TGI was found to be 16.5 µM in the test with SF-539 CNS; 14.5 µM with DMS 273 small cell lung; 31.9 µM in the test with KM20L2 colon; 23.8 µM in the test on HCC-2998 colon; 20.2 µM in the test on UACC-62 melanoma; 32.4 µM in the test with HOP-92 NSCLC. In addition, the TGI with SNB-78 CNS is 43.9 µM; with A498 renal, 16.9 µM; with SNB-19 CNS it was 59.9 µM.

For `NCCCCNCCCNC(=O)c1nc(-c2csc(CCN)n2)sc1Cl`, the TGI in the test with SF-539 CNS, with ACHN renal, in the test with DMS 273 small cell lung, in the test on KM20L2 colon, in the test on HCC-2998 colon and in the test on UACC-62 melanoma was > 100 µM each time. Moreover, the TGI in the test on HOP-92 NSCLC, with SNB-78 CNS, in the test on A498 renal and in the test with SNB-19 CNS was > 100 µM throughout.

With `CC1(Cl)CC2C(CC1Sc1nnnn1-c1ccccc1)C2(C)C` (stereo not drawn), the TGI in the test on SF-539 CNS, in the test on ACHN renal, in the test with DMS 273 small cell lung, in the test with KM20L2 colon, in the test with HCC-2998 colon and with UACC-62 melanoma was > 100 µM in each case. Also, the TGI in the test on HOP-92 NSCLC, with SNB-78 CNS and in the test with SNB-19 CNS was > 100 µM throughout.
